≈ marks a conversion by molar mass, not a printed value. Values belong to the compound of their own block, whether it stands above or below them.
Key:
P. aeruginosa ATCC 15692 = assay type: cell-based, Pseudomonas aeruginosa; conditions: pH (I or II) not given; 10 mM sodium phosphate buffer, 10% LB; 37° C, 24 h; mean of 3 experiments
Text: The method for peptide synthesis has been described in detail previously. […] Bacillus subtilis KCTC 1998 (LB media), Salmonella typhimurium KCTC 1926 (NB media), and Proteus vulgaris KCTC 2433 (NB media) were obtained from the Korean Collection for Type Cultures (Jeollabuk-do, Korea). E. coli CCARM 1238 was received from the Culture Collection of Antibiotic Resistant Microbes at Seoul Women’s University, Korea. Drug-resistant P. aeruginosa 3543, 3904, 3547, and 4007 and S. aureus 3126, 0027, 5157, 1635, 4761, 5159, 3359, 2122, 1630, 1870, 3511, 5156, and 3518 were resistant strains isolated from patients with otitis media in a Chonnam National University’s hospital.
The antibacterial activities of AMPs (melittin, clavaspirin, and its analogs) and conventional antibiotic drugs (erythromycin, gentamicin, ampicillin, and piperacidin) were determined using microdilution assays. […] Thereafter, 2× serial dilutions of each peptide (0.25–128 μM) or antibiotic (0.25–256 μM) were added to sterile 96-well plates, and aliquots of cell suspension (5 × 10^5 colony forming units (cfu)/mL) were seeded into each well. The samples were then incubated at 37° C for 24 h. At the end of the incubation, the minimum inhibitory concentrations (MICs) of the peptides were determined using a VERSA Max microplate reader (Molecular Devices Co., Sunnyvale, CA, USA) at a wavelength of 600 nm. […] MIC values were calculated as the mean of 3 independent experiments conducted in triplicate.

[1] = tested on: Bacillus subtilis KCTC 1998; assay type: cell-based; conditions: pH (I or II) not given; 10 mM sodium phosphate buffer, 10% LB; 37° C, 24 h; mean of 3 experiments
Text: (§1) The method for peptide synthesis has been described in detail previously. E. coli ATCC 25922 (LB media), P. aeruginosa ATCC 15692 (NB+0.5% NaCl media), Listeria monocytogenes ATCC 3710 (LB media), Staphylococcus epidermidis ATCC 12228 (LB media), and S. aureus ATCC 29213 (TSB media) were obtained from the American Type Culture Collection (Manassas, VA, USA). Bacillus subtilis KCTC 1998 (LB media), Salmonella typhimurium KCTC 1926 (NB media), and Proteus vulgaris KCTC 2433 (NB media) were obtained from the Korean Collection for Type Cultures (Jeollabuk-do, Korea). E. coli CCARM 1238 was received from the Culture Collection of Antibiotic Resistant Microbes at Seoul Women’s University, Korea. Drug-resistant P. aeruginosa 3543, 3904, 3547, and 4007 and S. aureus 3126, 0027, 5157, 1635, 4761, 5159, 3359, 2122, 1630, 1870, 3511, 5156, and 3518 were resistant strains isolated from patients with otitis media in a Chonnam National University’s hospital.
(§2) The antibacterial activities of AMPs (melittin, clavaspirin, and its analogs) and conventional antibiotic drugs (erythromycin, gentamicin, ampicillin, and piperacidin) were determined using microdilution assays. Bacterial cells were cultured at 37° C in appropriate culture media at pH 5.5 or pH 7.4 until collection during the mid-log phase and suspended in 10 mM sodium phosphate buffer (pH 5.5 or pH 7.4) supplemented with 10% culture medium. Thereafter, 2× serial dilutions of each peptide (0.25–128 μM) or antibiotic (0.25–256 μM) were added to sterile 96-well plates, and aliquots of cell suspension (5 × 10^5 colony forming units (cfu)/mL) were seeded into each well. The samples were then incubated at 37° C for 24 h. At the end of the incubation, the minimum inhibitory concentrations (MICs) of the peptides were determined using a VERSA Max microplate reader (Molecular Devices Co., Sunnyvale, CA, USA) at a wavelength of 600 nm. […] MIC values were calculated as the mean of 3 independent experiments conducted in triplicate.

[2] = tested on: Listeria monocytogenes ATCC 3710; assay type: cell-based; conditions: pH (I or II) not given; 10 mM sodium phosphate buffer, 10% LB; 37° C, 24 h; mean of 3 experiments
Text: as §1, §2

[3] = tested on: Staphylococcus epidermidis ATCC 12228; assay type: cell-based; conditions: pH (I or II) not given; 10 mM sodium phosphate buffer, 10% LB; 37° C, 24 h; mean of 3 experiments
Text: as §1, §2

[4] = tested on: Proteus vulgaris KCTC 2433; assay type: cell-based; conditions: pH (I or II) not given; 10 mM sodium phosphate buffer, 10% LB; 37° C, 24 h; mean of 3 experiments
Text: as §1, with “Bacillus subtilis KCTC 1998 (LB media), Salmonella typhimurium KCTC 1926 (NB media), and Proteus vulgaris KCTC 2433 (NB media) were obtained from the Korean Collection for Type Cultures (Jeollabuk-do, Korea).” left out
as §2

[5] = tested on: Salmonella typhimurium KCTC 1926; assay type: cell-based; conditions: pH (I or II) not given; 10 mM sodium phosphate buffer, 10% LB; 37° C, 24 h; mean of 3 experiments
Text: as §1, with “Bacillus subtilis KCTC 1998 (LB media), Salmonella typhimurium KCTC 1926 (NB media), and Proteus vulgaris KCTC 2433 (NB media) were obtained from the Korean Collection for Type Cultures (Jeollabuk-do, Korea).” left out
as §2

E. coli CCARM1238 = assay: microbe, parasite or virus in culture; assay type: cell-based, Escherichia coli; conditions: pH (I or II) not given, 10 mM sodium phosphate buffer, 10% LB, 37° C, 24 h, mean of 3 experiments
Text: as §1, §2

P. aeruginosa 3543 = assay: microbe, parasite or virus in culture; assay type: cell-based, Pseudomonas aeruginosa; conditions: pH (I or II) not given, 10 mM sodium phosphate buffer, 10% LB, 37° C, 24 h, mean of 3 experiments
Text: as §1, §2

P. aeruginosa 3547 = assay: microbe, parasite or virus in culture; assay type: cell-based, Pseudomonas aeruginosa; conditions: pH (I or II) not given, 10 mM sodium phosphate buffer, 10% LB, 37° C, 24 h, mean of 3 experiments
Text: as §1, §2

P. aeruginosa 3904 = assay: microbe, parasite or virus in culture; assay type: cell-based, Pseudomonas aeruginosa; conditions: pH (I or II) not given, 10 mM sodium phosphate buffer, 10% LB, 37° C, 24 h, mean of 3 experiments
Text: as §1, §2

P. aeruginosa 4007 = assay: microbe, parasite or virus in culture; assay type: cell-based, Pseudomonas aeruginosa; conditions: pH (I or II) not given, 10 mM sodium phosphate buffer, 10% LB, 37° C, 24 h, mean of 3 experiments
Text: as §1, §2

S. aureus 0027 = assay: microbe, parasite or virus in culture; assay type: cell-based, Staphylococcus aureus; conditions: pH (I or II) not given; 10 mM sodium phosphate buffer, 10% LB; 37° C, 24 h; mean of 3 experiments
Text: as §1, §2

S. aureus 1630 = assay: microbe, parasite or virus in culture; assay type: cell-based, Staphylococcus aureus; conditions: pH (I or II) not given; 10 mM sodium phosphate buffer, 10% LB; 37° C, 24 h; mean of 3 experiments
Text: as §1, §2

S. aureus 1635 = assay: microbe, parasite or virus in culture; assay type: cell-based, Staphylococcus aureus; conditions: pH (I or II) not given; 10 mM sodium phosphate buffer, 10% LB; 37° C, 24 h; mean of 3 experiments
Text: as §1, §2

S. aureus 1870 = assay: microbe, parasite or virus in culture; assay type: cell-based, Staphylococcus aureus; conditions: pH (I or II) not given; 10 mM sodium phosphate buffer, 10% LB; 37° C, 24 h; mean of 3 experiments
Text: as §1, §2

S. aureus 2122 = assay: microbe, parasite or virus in culture; assay type: cell-based, Staphylococcus aureus; conditions: pH (I or II) not given; 10 mM sodium phosphate buffer, 10% LB; 37° C, 24 h; mean of 3 experiments
Text: as §1, §2

S. aureus 3126 = assay: microbe, parasite or virus in culture; assay type: cell-based, Staphylococcus aureus; conditions: pH (I or II) not given; 10 mM sodium phosphate buffer, 10% LB; 37° C, 24 h; mean of 3 experiments
Text: as §1, §2

S. aureus 3359 = assay: microbe, parasite or virus in culture; assay type: cell-based, Staphylococcus aureus; conditions: pH (I or II) not given; 10 mM sodium phosphate buffer, 10% LB; 37° C, 24 h; mean of 3 experiments
Text: as §1, §2

S. aureus 3511 = assay: microbe, parasite or virus in culture; assay type: cell-based, Staphylococcus aureus; conditions: pH (I or II) not given; 10 mM sodium phosphate buffer, 10% LB; 37° C, 24 h; mean of 3 experiments
Text: as §1, §2

S. aureus 3518 = assay: microbe, parasite or virus in culture; assay type: cell-based, Staphylococcus aureus; conditions: pH (I or II) not given; 10 mM sodium phosphate buffer, 10% LB; 37° C, 24 h; mean of 3 experiments
Text: as §1, §2

S. aureus 4761 = assay: microbe, parasite or virus in culture; assay type: cell-based, Staphylococcus aureus; conditions: pH (I or II) not given; 10 mM sodium phosphate buffer, 10% LB; 37° C, 24 h; mean of 3 experiments
Text: as §1, §2

S. aureus 5156 = assay: microbe, parasite or virus in culture; assay type: cell-based, Staphylococcus aureus; conditions: pH (I or II) not given; 10 mM sodium phosphate buffer, 10% LB; 37° C, 24 h; mean of 3 experiments
Text: as §1, §2

S. aureus 5157 = assay: microbe, parasite or virus in culture; assay type: cell-based, Staphylococcus aureus; conditions: pH (I or II) not given; 10 mM sodium phosphate buffer, 10% LB; 37° C, 24 h; mean of 3 experiments
Text: as §1, §2

S. aureus 5159 = assay: microbe, parasite or virus in culture; assay type: cell-based, Staphylococcus aureus; conditions: pH (I or II) not given; 10 mM sodium phosphate buffer, 10% LB; 37° C, 24 h; mean of 3 experiments
Text: as §1, §2

SMILES: CC[C@H](C)[C@H](NC(=O)CN)C(=O)NCC(=O)N[C@@H](C)C(=O)N[C@H](C(=O)N[C@@H](CC(C)C)C(=O)N[C@@H](CCCCN)C(=O)N[C@H](C(=O)N[C@@H](CC(C)C)C(=O)N[C@H](C(=O)N[C@H](C(=O)NCC(=O)N[C@@H](CC(C)C)C(=O)N1CCC[C@H]1C(=O)N[C@@H](C)C(=O)N[C@@H](CC(C)C)C(=O)N[C@H](C(=O)N[C@@H](CO)C(=O)N[C@@H](Cc1c[nH]c2ccccc12)C(=O)N[C@H](C(=O)N[C@@H](CCCCN)C(=O)N[C@@H](CCCNC(=N)N)C(=O)N[C@@H](CCCCN)C(=O)N[C@@H](CCCNC(=N)N)C(=O)N[C@@H](CCC(N)=O)C(=O)N[C@@H](CCC(N)=O)C(N)=O)[C@@H](C)CC)[C@@H](C)CC)[C@@H](C)O)[C@@H](C)O)C(C)C)C(C)C [Melittin]
MIC, P. aeruginosa (P. aeruginosa ATCC 15692): 2 µM (≈ 5.69 µg/mL)
MIC, B. subtilis [1]: 2 µM (≈ 5.69 µg/mL)
MIC, L. monocytogenes [2]: 2 µM (≈ 5.69 µg/mL)
MIC, S. epidermidis [3]: 2 µM (≈ 5.69 µg/mL)
MIC, P. vulgaris [4]: 2 µM (≈ 5.69 µg/mL)
MIC, S. typhimurium [5]: 2 µM (≈ 5.69 µg/mL)
MIC (E. coli CCARM1238): 2 µM (≈ 5.69 µg/mL)
MIC (P. aeruginosa 3543): 2 µM (≈ 5.69 µg/mL)
MIC (P. aeruginosa 3547): 2 µM (≈ 5.69 µg/mL)
MIC (P. aeruginosa 3904): 2 µM (≈ 5.69 µg/mL)
MIC (P. aeruginosa 4007): 2 µM (≈ 5.69 µg/mL)
MIC (S. aureus 0027): 2 µM (≈ 5.69 µg/mL)
MIC (S. aureus 1630): 4 µM (≈ 11.4 µg/mL)
MIC (S. aureus 1635): 2 µM (≈ 5.69 µg/mL)
MIC (S. aureus 1870): 4 µM (≈ 11.4 µg/mL)
MIC (S. aureus 2122): 4 µM (≈ 11.4 µg/mL)
MIC (S. aureus 3126): 2 µM (≈ 5.69 µg/mL)
MIC (S. aureus 3359): 4 µM (≈ 11.4 µg/mL)
MIC (S. aureus 3511): 4 µM (≈ 11.4 µg/mL)
MIC (S. aureus 3518): 4 µM (≈ 11.4 µg/mL)
MIC (S. aureus 4761): 4 µM (≈ 11.4 µg/mL)
MIC (S. aureus 5156): 4 µM (≈ 11.4 µg/mL)
MIC (S. aureus 5157): 2 µM (≈ 5.69 µg/mL)
MIC (S. aureus 5159): 8 µM (≈ 22.8 µg/mL)

MIC (E. coli CCARM1238; Escherichia coli, CCARM1238): > 800 µM
MIC (P. aeruginosa 3543; Pseudomonas aeruginosa, 3543): > 800 µM
MIC (P. aeruginosa 3547; Pseudomonas aeruginosa, 3547): 400 µM (≈ 140 µg/mL)
MIC (P. aeruginosa 3904; Pseudomonas aeruginosa, 3904): > 800 µM
MIC (P. aeruginosa 4007; Pseudomonas aeruginosa, 4007): > 800 µM
SMILES: CC1(C)S[C@@H]2[C@H](NC(=O)[C@H](N)c3ccccc3)C(=O)N2[C@H]1C(=O)O [ampicillin]

From publication PMC5884652, “New antimicrobial peptide kills drug-resistant pathogens without detectable resistance” (Oncotarget, 2018)
